Results as given in PMC5218480 (PLoS ONE, 2017).

Tested on: MV-4-11 cells
Assay: Gene expression microarray analysis (Affymetrix PrimeView) and GSEA
Format: cell-based, human
Set-up: RFU PODN (11730768_x_at) / Fold change /veh PODN (11730768_x_at) / RFU LINC00158 (11744669_a_at) / Fold change /veh LINC00158 (11744669_a_at) / RFU DUSP10 (11751237_a_at) / Fold change /veh DUSP10 (11751237_a_at) / RFU ID3 (11757404_x_at) / Fold change /veh ID3 (11757404_x_at) / RFU PLEKHG5 (11737974_s_at) / Fold change /veh PLEKHG5 (11737974_s_at) / RFU LRRC4B (11730491_at) / Fold change /veh LRRC4B (11730491_at) / RFU GIMAP4 (11747438_a_at) / Fold change /veh GIMAP4 (11747438_a_at) / RFU KRT8 (11758183_x_at) / Fold change /veh KRT8 (11758183_x_at) / RFU CNN1 (11734310_a_at) / Fold change /veh CNN1 (11734310_a_at) / RFU VPS37D (11726825_at) / Fold change /veh VPS37D (11726825_at) / RFU C10orf10 (11716522_x_at) / Fold change /veh C10orf10 (11716522_x_at) / RFU KIR2DL2 /// KIR2DL4 /// KIR2DL5A /// KIR2DL5B /// KIR2DS1 /// KIR2DS2 /// KIR2DS3 /// KIR2DS4 /// KIR3DL3 /// KIR3DL3 /// KIR3DS1 (11738374_at) / Fold change /veh KIR2DL2 /// KIR2DL4 /// KIR2DL5A /// KIR2DL5B /// KIR2DS1 /// KIR2DS2 /// KIR2DS3 /// KIR2DS4 /// KIR3DL3 /// KIR3DL3 /// KIR3DS1 (11738374_at) / RFU C1QL1 (11718748_at) / Fold change /veh C1QL1 (11718748_at) / RFU TMPRSS4 (11747572_a_at) / Fold change /veh TMPRSS4 (11747572_a_at) / RFU HAMP (11756126_x_at) / Fold change /veh HAMP (11756126_x_at) / RFU RNFT2 (11725882_a_at) / Fold change /veh RNFT2 (11725882_a_at) / RFU NR4A2 (11747474_a_at) / Fold change /veh NR4A2 (11747474_a_at) / RFU ABCC12 (11746883_a_at) / Fold change /veh ABCC12 (11746883_a_at) / RFU TMEM136 (11760407_x_at) / Fold change /veh TMEM136 (11760407_x_at) / RFU CLDN22 /// WWC2 (11732394_at) / Fold change /veh CLDN22 /// WWC2 (11732394_at) / RFU HLA-DPB1 (11760878_x_at) / Fold change /veh HLA-DPB1 (11760878_x_at) / RFU SPINT1 (11716480_a_at) / Fold change /veh SPINT1 (11716480_a_at) / RFU GAP43 (11754022_s_at) / Fold change /veh GAP43 (11754022_s_at) / RFU A4GNT (11735810_at) / Fold change /veh A4GNT (11735810_at) / RFU PRB3 (11715151_x_at) / Fold change /veh PRB3 (11715151_x_at) / RFU TUBB4B (11761932_at) / Fold change /veh TUBB4B (11761932_at) / RFU CAPN14 (11732068_a_at) / Fold change /veh CAPN14 (11732068_a_at) / RFU TMCC2 (11721928_a_at) / Fold change /veh TMCC2 (11721928_a_at) / RFU IRGQ (11745062_a_at) / Fold change /veh IRGQ (11745062_a_at) / RFU FAM174B (11720279_a_at) / Fold change /veh FAM174B (11720279_a_at) / RFU TMPRSS4 (11748680_a_at) / Fold change /veh TMPRSS4 (11748680_a_at) / RFU FAM212B (11763350_a_at) / Fold change /veh FAM212B (11763350_a_at) / RFU PLEKHG5 (11743358_a_at) / Fold change /veh PLEKHG5 (11743358_a_at) / RFU ZSCAN30 (11745921_a_at) / Fold change /veh ZSCAN30 (11745921_a_at) / RFU CMKLR1 (11741424_a_at) / Fold change /veh CMKLR1 (11741424_a_at) / RFU LOC101060620 /// MAPK8IP1 (11723275_at) / Fold change /veh LOC101060620 /// MAPK8IP1 (11723275_at) / RFU SPTSSB (11747773_x_at) / Fold change /veh SPTSSB (11747773_x_at) / RFU PRSS12 (11739890_at) / Fold change /veh PRSS12 (11739890_at) / RFU BIN1 (11741810_x_at) / Fold change /veh BIN1 (11741810_x_at) / RFU WNT11 (11732464_a_at) / Fold change /veh WNT11 (11732464_a_at) / RFU C10orf10 (11716521_a_at) / Fold change /veh C10orf10 (11716521_a_at) / RFU C5orf56 (11738089_at) / Fold change /veh C5orf56 (11738089_at) / RFU CYB561 (11721691_x_at) / Fold change /veh CYB561 (11721691_x_at) / RFU ANKRD19P (11752326_a_at) / Fold change /veh ANKRD19P (11752326_a_at) / RFU OR2T12 /// OR2T33 /// OR2T8 (11738714_s_at) / Fold change /veh OR2T12 /// OR2T33 /// OR2T8 (11738714_s_at) / RFU VCAN (11748164_a_at) / Fold change /veh VCAN (11748164_a_at) / RFU JSRP1 (11732532_at) / Fold change /veh JSRP1 (11732532_at) / RFU KRTAP10-11 (11738290_x_at) / Fold change /veh KRTAP10-11 (11738290_x_at) / RFU MYO3A (11730013_a_at) / Fold change /veh MYO3A (11730013_a_at) / RFU EBF3 (11725865_a_at) / Fold change /veh EBF3 (11725865_a_at) / RFU CAMK2N1 (11719241_x_at) / Fold change /veh CAMK2N1 (11719241_x_at) / RFU C5orf56 (11738088_a_at) / Fold change /veh C5orf56 (11738088_a_at) / RFU OLFML3 (11715873_a_at) / Fold change /veh OLFML3 (11715873_a_at) / RFU LOC100653217 /// NTM (11731650_a_at) / Fold change /veh LOC100653217 /// NTM (11731650_a_at) / RFU MAPK11 (11762145_a_at) / Fold change /veh MAPK11 (11762145_a_at) / RFU FIZ1 (11724087_x_at) / Fold change /veh FIZ1 (11724087_x_at) / RFU OASL (11726364_x_at) / Fold change /veh OASL (11726364_x_at) / RFU SOX15 (11748057_x_at) / Fold change /veh SOX15 (11748057_x_at) / RFU CD79A (11719716_a_at) / Fold change /veh CD79A (11719716_a_at) / RFU HIST1H1D (11736915_at) / Fold change /veh HIST1H1D (11736915_at) / RFU CASKIN2 (11723855_a_at) / Fold change /veh CASKIN2 (11723855_a_at) / RFU LOC730098 (11760151_x_at) / Fold change /veh LOC730098 (11760151_x_at) / RFU OR4N2 (11742367_at) / Fold change /veh OR4N2 (11742367_at) / RFU PRRT2 (11749266_a_at) / Fold change /veh PRRT2 (11749266_a_at) / RFU SNX32 (11753110_a_at) / Fold change /veh SNX32 (11753110_a_at) / RFU CDHR5 (11726645_a_at) / Fold change /veh CDHR5 (11726645_a_at) / RFU RCAN1 (11760418_a_at) / Fold change /veh RCAN1 (11760418_a_at) / RFU FAM167A (11723789_a_at) / Fold change /veh FAM167A (11723789_a_at) / RFU FAM26E (11764081_at) / Fold change /veh FAM26E (11764081_at) / RFU ISYNA1 (11749810_s_at) / Fold change /veh ISYNA1 (11749810_s_at) / RFU ACY1 (11761880_at) / Fold change /veh ACY1 (11761880_at) / RFU 11764098_at / Fold change /veh 11764098_at / RFU SAMD14 (11745864_x_at) / Fold change /veh SAMD14 (11745864_x_at) / RFU NPB (11741838_a_at) / Fold change /veh NPB (11741838_a_at) / RFU TMPRSS6 (11731388_a_at) / Fold change /veh TMPRSS6 (11731388_a_at) / RFU KRTAP10-2 (11738614_at) / Fold change /veh KRTAP10-2 (11738614_at) / RFU ARHGAP8 /// PRR5-ARHGAP8 (11727945_x_at) / Fold change /veh ARHGAP8 /// PRR5-ARHGAP8 (11727945_x_at) / RFU KRTAP5-7 /// NADSYN1 (11734609_at) / Fold change /veh KRTAP5-7 /// NADSYN1 (11734609_at) / RFU RASL12 (11751679_a_at) / Fold change /veh RASL12 (11751679_a_at) / RFU CDKN2B (11736163_a_at) / Fold change /veh CDKN2B (11736163_a_at) / RFU PRF1 (11729649_at) / Fold change /veh PRF1 (11729649_at) / RFU, ZNF638 /// ZNF638-IT1 / Fold change vs veh, ZNF638 /// ZNF638-IT1 / RFU, PANK3 / Fold change vs veh, PANK3 / RFU, SH3YL1 / Fold change vs veh, SH3YL1 / RFU, ZEB2 / Fold change vs veh, ZEB2 / RFU, NRIP1 / Fold change vs veh, NRIP1 / RFU, PTTG1IP / Fold change vs veh, PTTG1IP / RFU, CAPN2 / Fold change vs veh, CAPN2 / RFU, MED14 / Fold change vs veh, MED14 / RFU, SNORA58 / Fold change vs veh, SNORA58 / RFU, C1orf63 / Fold change vs veh, C1orf63 / RFU, LRRFIP1 / Fold change vs veh, LRRFIP1 / RFU, NDUFAF7 / Fold change vs veh, NDUFAF7 / RFU, SLC12A2 / Fold change vs veh, SLC12A2 / RFU, IBTK / Fold change vs veh, IBTK / RFU, ESF1 / Fold change vs veh, ESF1 / Fold change vs veh, TMEM50B / RFU, TAOK1 / Fold change vs veh, TAOK1 / RFU, ACBD3 / Fold change vs veh, ACBD3 / RFU, TMA16 / Fold change vs veh, TMA16 / RFU, RWDD3 / Fold change vs veh, RWDD3 / RFU, BCAT1 / Fold change vs veh, BCAT1 / RFU, EDEM3 / Fold change vs veh, EDEM3 / RFU, TMEM33 / Fold change vs veh, TMEM33 / RFU, WDR75 / Fold change vs veh, WDR75 / RFU, AHCTF1 / Fold change vs veh, AHCTF1 / RFU, TFRC / Fold change vs veh, TFRC / RFU, ZDHHC17 / Fold change vs veh, ZDHHC17 / RFU, NOM1 / Fold change vs veh, NOM1 / RFU, ARL8B / Fold change vs veh, ARL8B / RFU, ZBTB11 / Fold change vs veh, ZBTB11 / RFU, TAMM41 / Fold change vs veh, TAMM41 / RFU, KIAA1704 /// LOC100996395 / Fold change vs veh, KIAA1704 /// LOC100996395 / RFU, ING1 / Fold change vs veh, ING1 / RFU, TRMT61B / Fold change vs veh, TRMT61B / RFU, FUBP3 / Fold change vs veh, FUBP3 / RFU, TP53 / Fold change vs veh, TP53 / RFU, TNKS2 / Fold change vs veh, TNKS2 / RFU, ZFP14 / Fold change vs veh, ZFP14 / RFU, ACTR2 / Fold change vs veh, ACTR2 / RFU, PPP3R1 / Fold change vs veh, PPP3R1 / RFU, PIK3R1 / Fold change vs veh, PIK3R1 / RFU, HNRNPA1 / Fold change vs veh, HNRNPA1 / RFU, RNF170 / Fold change vs veh, RNF170 / RFU, ZNF28 / Fold change vs veh, ZNF28 / RFU, RNGTT / Fold change vs veh, RNGTT / RFU, OGT / Fold change vs veh, OGT / RFU, BRD1 / Fold change vs veh, BRD1 / RFU, MARS / Fold change vs veh, MARS / RFU, ZNF655 / Fold change vs veh, ZNF655 / RFU, FAHD1 / Fold change vs veh, FAHD1 / RFU, BDP1 / Fold change vs veh, BDP1 / RFU, LRRCC1 / Fold change vs veh, LRRCC1 / RFU, ARID1A / Fold change vs veh, ARID1A / RFU, ZNF146 / Fold change vs veh, ZNF146 / RFU, ZNF330 / Fold change vs veh, ZNF330 / RFU, GPN3 / Fold change vs veh, GPN3 / RFU, C9orf123 / Fold change vs veh, C9orf123 / RFU, N4BP2L2 / Fold change vs veh, N4BP2L2 / RFU, ARFIP1 / Fold change vs veh, ARFIP1 / RFU, FAM179B / Fold change vs veh, FAM179B / RFU, BCL10 / Fold change vs veh, BCL10 / RFU, UHRF1BP1L / Fold change vs veh, UHRF1BP1L / RFU, BET1 / Fold change vs veh, BET1 / RFU, CNOT2 / Fold change vs veh, CNOT2 / RFU, ZNF268 / Fold change vs veh, ZNF268 / Fold change vs veh, ZNF507 / RFU, DGCR2 / Fold change vs veh, DGCR2 / RFU, WDSUB1 / Fold change vs veh, WDSUB1 / Fold change vs veh, HSP90B1 /// MIR3652 / RFU, ADSS / Fold change vs veh, ADSS / RFU, GK / Fold change vs veh, GK / RFU, ZNF148 / Fold change vs veh, ZNF148 / RFU, TAF9 / Fold change vs veh, TAF9 / RFU, SLC1A5 / Fold change vs veh, SLC1A5 / RFU, SLMO2 / Fold change vs veh, SLMO2 / RFU, ABCC4 / Fold change vs veh, ABCC4 / RFU, LOC101060439 /// RAP1B / Fold change vs veh, LOC101060439 /// RAP1B / RFU, RFX7 / Fold change vs veh, RFX7 / RFU, GTPBP10 / Fold change vs veh, GTPBP10 / RFU, CNEP1R1 / Fold change vs veh, CNEP1R1 / RFU, BIVM-ERCC5 /// ERCC5 / Fold change vs veh, BIVM-ERCC5 /// ERCC5 / RFU, ILF3 / Fold change vs veh, ILF3 / RFU 11762660_at / Fold change /veh 11762660_at / RFU VCAN (11757783_s_at) / Fold change /veh VCAN (11757783_s_at) / RFU DDX43 (11728927_at) / Fold change /veh DDX43 (11728927_at) / RFU KRT8 (11758188_x_at) / Fold change /veh KRT8 (11758188_x_at) / RFU NKD1 (11759106_at) / Fold change /veh NKD1 (11759106_at) / RFU SRD5A1 (11742802_a_at) / Fold change /veh SRD5A1 (11742802_a_at) / RFU TPSAB1 /// TPSB2 (11721975_s_at) / Fold change /veh TPSAB1 /// TPSB2 (11721975_s_at) / RFU GSTM3 (11746129_a_at) / Fold change /veh GSTM3 (11746129_a_at) / RFU IL23R (11737362_x_at) / Fold change /veh IL23R (11737362_x_at) / RFU TMEM51 (11727254_a_at) / Fold change /veh TMEM51 (11727254_a_at) / RFU PIWIL2 (11732686_x_at) / Fold change /veh PIWIL2 (11732686_x_at) / RFU ORM1 (11744905_x_at) / Fold change /veh ORM1 (11744905_x_at) / RFU CCDC152 (11743942_at) / Fold change /veh CCDC152 (11743942_at) / RFU ECM1 (11717891_a_at) / Fold change /veh ECM1 (11717891_a_at) / RFU IL23R (11748794_a_at) / Fold change /veh IL23R (11748794_a_at) / RFU TNFAIP8L3 (11732012_x_at) / Fold change /veh TNFAIP8L3 (11732012_x_at) / RFU MBOAT4 (11741988_at) / Fold change /veh MBOAT4 (11741988_at) / RFU 11764193_at / Fold change /veh 11764193_at / RFU TMEM53 (11763286_at) / Fold change /veh TMEM53 (11763286_at) / RFU MAGEB2 (11727129_at) / Fold change /veh MAGEB2 (11727129_at) / RFU TMEM200A (11744735_a_at) / Fold change /veh TMEM200A (11744735_a_at) / RFU CCDC152 (11751479_a_at) / Fold change /veh CCDC152 (11751479_a_at) / RFU FAM211A (11726209_a_at) / Fold change /veh FAM211A (11726209_a_at) / RFU RGS16 (11746705_a_at) / Fold change /veh RGS16 (11746705_a_at) / RFU VCAN (11755009_s_at) / Fold change /veh VCAN (11755009_s_at) / RFU RHOB (11743442_s_at) / Fold change /veh RHOB (11743442_s_at) / RFU RGS16 (11720943_a_at) / Fold change /veh RGS16 (11720943_a_at) / RFU RGS16 (11720944_at) / Fold change /veh RGS16 (11720944_at) / RFU, VPS4B / Fold change vs veh, VPS4B / RFU, CREB1 / Fold change vs veh, CREB1 / RFU, DNAJC13 / Fold change vs veh, DNAJC13 / RFU, GNAQ / Fold change vs veh, GNAQ / RFU, CDK5R1 / Fold change vs veh, CDK5R1 / RFU, ZRANB3 / Fold change vs veh, ZRANB3 / RFU, CUL4A / Fold change vs veh, CUL4A / RFU, CCNY / Fold change vs veh, CCNY / RFU, UFL1 / Fold change vs veh, UFL1 / RFU, COG3 / Fold change vs veh, COG3 / RFU, DIAPH2 / Fold change vs veh, DIAPH2 / RFU, SKA2 / Fold change vs veh, SKA2 / RFU, AFF3 / Fold change vs veh, AFF3 / RFU, LMF1 / Fold change vs veh, LMF1 / RFU, IPO11 / Fold change vs veh, IPO11 / RFU, DFFB / Fold change vs veh, DFFB / RFU, FOXP1 / Fold change vs veh, FOXP1 / RFU, CARD8 / Fold change vs veh, CARD8 / RFU, STRN3 / Fold change vs veh, STRN3 / RFU, ADK / Fold change vs veh, ADK / RFU, RASSF2 / Fold change vs veh, RASSF2 / RFU, WIPF1 / Fold change vs veh, WIPF1 / RFU, LARP1B / Fold change vs veh, LARP1B / RFU, RASA1 / Fold change vs veh, RASA1 / RFU, RB1 / Fold change vs veh, RB1 / RFU, PPFIA1 / Fold change vs veh, PPFIA1 / RFU, MAT2A / Fold change vs veh, MAT2A / RFU, CCT5 / Fold change vs veh, CCT5 / RFU, WDR92 / Fold change vs veh, WDR92 / RFU, CUX1 / Fold change vs veh, CUX1 / RFU, TTC7A / Fold change vs veh, TTC7A / RFU, TMEM135 / Fold change vs veh, TMEM135 / RFU, DEPTOR / Fold change vs veh, DEPTOR / RFU, CPM / Fold change vs veh, CPM / RFU, DNAJB6 / Fold change vs veh, DNAJB6 / RFU, CACNA2D3 / Fold change vs veh, CACNA2D3 / RFU, DTX4 / Fold change vs veh, DTX4 / RFU, TFCP2 / Fold change vs veh, TFCP2 / RFU, GMCL1 /// GMCL1P1 / Fold change vs veh, GMCL1 /// GMCL1P1 / RFU, AEBP2 / Fold change vs veh, AEBP2 / RFU, SNHG1 /// SNORD22 /// SNORD25 /// SNORD26 /// SNORD27 /// SNORD28 /// SNORD29 /// SNORD31 / Fold change vs veh, SNHG1 /// SNORD22 /// SNORD25 /// SNORD26 /// SNORD27 /// SNORD28 /// SNORD29 /// SNORD31 / Fold change (Aza/veh), C12orf56 (ProbeSet 11735607_a_at) / Fold change (ACY-1035/veh), C12orf56 (ProbeSet 11735607_a_at) / Fold change (Aza/veh), FGFR1OP (ProbeSet 11751329_s_at) / Fold change (ACY-1035/veh), FGFR1OP (ProbeSet 11751329_s_at) / Fold change (Aza/veh), VPS36 (ProbeSet 11739960_a_at) / Fold change (ACY-1035/veh), VPS36 (ProbeSet 11739960_a_at) / RFU SYPL1 (11715823_x_at) / Fold change /veh SYPL1 (11715823_x_at) / RFU IGFBP7 (11715501_s_at) / Fold change /veh IGFBP7 (11715501_s_at) / RFU REEP3 (11722064_at) / Fold change /veh REEP3 (11722064_at) / RFU IGLL1 (11728026_x_at) / Fold change /veh IGLL1 (11728026_x_at): dose or concentration left out as unconfirmed
Details: ProbeSet 11725141_a_at; LIST B

Compound: Nc1ncn([C@@H]2O[C@H](CO)[C@@H](O)[C@H]2O)c(=O)n1 [azacitidine]
- Fold change vs veh, FUBP3: 0.84
